Assays:
Test in all cases: Determination of Inhibitor Ki
Conditions in all cases: pH 7.4; 22 °C
[1] = molecular target: T1, TYR_PHOSPHATASE_2 domain-containing protein (Mycobacterium tuberculosis (strain CDC 1551 / Oshkosh), UniProt P96830)
T1 sequence (P96830 whole entry): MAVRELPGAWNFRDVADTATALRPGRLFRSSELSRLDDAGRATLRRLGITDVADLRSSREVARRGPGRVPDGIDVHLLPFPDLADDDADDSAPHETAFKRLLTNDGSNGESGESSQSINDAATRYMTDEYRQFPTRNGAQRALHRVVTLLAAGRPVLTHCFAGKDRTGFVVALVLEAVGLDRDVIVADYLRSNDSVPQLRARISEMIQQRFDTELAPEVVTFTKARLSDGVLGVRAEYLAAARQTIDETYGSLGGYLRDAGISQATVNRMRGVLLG
Description: (§1) The initial rate data collected was used for determination of Ki values. For Ki determination, the kinetic values were obtained directly from nonlinear regression of substrate-velocity curves in the presence of various concentrations of inhibitor.

[2] = molecular target: T2, Low molecular weight protein-tyrosine phosphatase A (Mycobacterium tuberculosis (strain ATCC 25618 / H37Rv), UniProt P9WIA1)
T2 sequence (P9WIA1 whole entry): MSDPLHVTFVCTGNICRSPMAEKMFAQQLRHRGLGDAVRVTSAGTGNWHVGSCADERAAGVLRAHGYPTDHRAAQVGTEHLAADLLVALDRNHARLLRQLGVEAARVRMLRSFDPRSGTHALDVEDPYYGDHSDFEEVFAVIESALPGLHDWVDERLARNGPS
Description: as §1

[3] = molecular target: Dual specificity protein phosphatase 3 (Homo sapiens, UniProt P51452)
Dual specificity protein phosphatase 3, sequence (P51452 whole entry): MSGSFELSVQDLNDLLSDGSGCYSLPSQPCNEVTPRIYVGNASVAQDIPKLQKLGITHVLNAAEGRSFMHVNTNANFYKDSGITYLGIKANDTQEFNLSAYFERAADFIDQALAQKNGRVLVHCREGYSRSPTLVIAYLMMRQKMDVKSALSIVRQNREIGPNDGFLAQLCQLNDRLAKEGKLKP
Description: as §1

[4] = molecular target: T3, Receptor-type tyrosine-protein phosphatase C (Homo sapiens, UniProt P08575)
T3 sequence (P08575 whole entry): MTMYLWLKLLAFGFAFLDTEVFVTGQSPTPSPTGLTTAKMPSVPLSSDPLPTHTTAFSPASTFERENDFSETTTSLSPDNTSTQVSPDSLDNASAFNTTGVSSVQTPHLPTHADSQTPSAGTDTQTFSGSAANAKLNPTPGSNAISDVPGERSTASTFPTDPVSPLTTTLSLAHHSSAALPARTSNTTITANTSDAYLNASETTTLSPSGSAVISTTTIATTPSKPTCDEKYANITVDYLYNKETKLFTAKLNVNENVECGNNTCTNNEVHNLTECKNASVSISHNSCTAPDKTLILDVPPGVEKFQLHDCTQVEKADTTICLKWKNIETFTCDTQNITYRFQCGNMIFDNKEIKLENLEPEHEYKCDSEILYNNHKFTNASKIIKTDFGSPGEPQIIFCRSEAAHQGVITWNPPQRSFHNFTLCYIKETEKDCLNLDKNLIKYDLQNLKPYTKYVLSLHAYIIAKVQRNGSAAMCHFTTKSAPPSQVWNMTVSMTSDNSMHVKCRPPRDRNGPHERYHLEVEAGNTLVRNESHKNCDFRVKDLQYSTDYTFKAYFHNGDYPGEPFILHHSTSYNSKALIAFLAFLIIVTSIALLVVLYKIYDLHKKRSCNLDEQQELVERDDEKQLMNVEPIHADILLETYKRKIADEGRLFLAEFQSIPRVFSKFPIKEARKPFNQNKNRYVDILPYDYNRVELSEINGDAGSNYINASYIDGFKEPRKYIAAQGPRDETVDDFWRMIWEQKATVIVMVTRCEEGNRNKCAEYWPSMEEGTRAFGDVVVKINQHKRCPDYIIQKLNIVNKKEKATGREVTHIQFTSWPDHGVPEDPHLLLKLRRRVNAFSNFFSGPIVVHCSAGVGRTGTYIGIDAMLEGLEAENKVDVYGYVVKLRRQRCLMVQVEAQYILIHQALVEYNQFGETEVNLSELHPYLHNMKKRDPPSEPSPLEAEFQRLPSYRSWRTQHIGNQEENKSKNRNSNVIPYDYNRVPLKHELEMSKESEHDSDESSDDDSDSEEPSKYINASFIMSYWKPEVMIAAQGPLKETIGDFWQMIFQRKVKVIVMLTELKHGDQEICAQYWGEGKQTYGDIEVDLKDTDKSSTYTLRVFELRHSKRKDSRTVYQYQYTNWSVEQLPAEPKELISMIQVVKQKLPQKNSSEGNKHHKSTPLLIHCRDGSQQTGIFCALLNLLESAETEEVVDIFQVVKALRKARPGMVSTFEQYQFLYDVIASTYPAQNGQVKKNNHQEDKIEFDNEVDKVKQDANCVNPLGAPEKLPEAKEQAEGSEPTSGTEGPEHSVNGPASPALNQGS
Description: as §1

[5] = molecular target: T4, Tyrosine-protein phosphatase non-receptor type 2 (Homo sapiens, UniProt P17706)
T4 sequence (P17706 whole entry): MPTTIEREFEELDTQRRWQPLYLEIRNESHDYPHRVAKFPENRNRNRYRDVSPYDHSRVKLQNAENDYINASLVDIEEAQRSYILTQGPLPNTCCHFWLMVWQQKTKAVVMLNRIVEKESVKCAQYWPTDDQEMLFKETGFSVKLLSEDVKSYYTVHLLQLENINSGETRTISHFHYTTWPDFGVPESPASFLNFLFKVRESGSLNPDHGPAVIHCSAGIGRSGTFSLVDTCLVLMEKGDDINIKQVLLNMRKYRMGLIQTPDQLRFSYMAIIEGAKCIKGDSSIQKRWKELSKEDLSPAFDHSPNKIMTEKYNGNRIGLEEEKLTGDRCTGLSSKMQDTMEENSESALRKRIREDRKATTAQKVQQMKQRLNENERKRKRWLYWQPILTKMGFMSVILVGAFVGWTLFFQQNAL
Description: as §1

[6] = molecular target: Receptor-type tyrosine-protein phosphatase F (Homo sapiens, UniProt P10586)
Receptor-type tyrosine-protein phosphatase F, sequence (P10586 whole entry): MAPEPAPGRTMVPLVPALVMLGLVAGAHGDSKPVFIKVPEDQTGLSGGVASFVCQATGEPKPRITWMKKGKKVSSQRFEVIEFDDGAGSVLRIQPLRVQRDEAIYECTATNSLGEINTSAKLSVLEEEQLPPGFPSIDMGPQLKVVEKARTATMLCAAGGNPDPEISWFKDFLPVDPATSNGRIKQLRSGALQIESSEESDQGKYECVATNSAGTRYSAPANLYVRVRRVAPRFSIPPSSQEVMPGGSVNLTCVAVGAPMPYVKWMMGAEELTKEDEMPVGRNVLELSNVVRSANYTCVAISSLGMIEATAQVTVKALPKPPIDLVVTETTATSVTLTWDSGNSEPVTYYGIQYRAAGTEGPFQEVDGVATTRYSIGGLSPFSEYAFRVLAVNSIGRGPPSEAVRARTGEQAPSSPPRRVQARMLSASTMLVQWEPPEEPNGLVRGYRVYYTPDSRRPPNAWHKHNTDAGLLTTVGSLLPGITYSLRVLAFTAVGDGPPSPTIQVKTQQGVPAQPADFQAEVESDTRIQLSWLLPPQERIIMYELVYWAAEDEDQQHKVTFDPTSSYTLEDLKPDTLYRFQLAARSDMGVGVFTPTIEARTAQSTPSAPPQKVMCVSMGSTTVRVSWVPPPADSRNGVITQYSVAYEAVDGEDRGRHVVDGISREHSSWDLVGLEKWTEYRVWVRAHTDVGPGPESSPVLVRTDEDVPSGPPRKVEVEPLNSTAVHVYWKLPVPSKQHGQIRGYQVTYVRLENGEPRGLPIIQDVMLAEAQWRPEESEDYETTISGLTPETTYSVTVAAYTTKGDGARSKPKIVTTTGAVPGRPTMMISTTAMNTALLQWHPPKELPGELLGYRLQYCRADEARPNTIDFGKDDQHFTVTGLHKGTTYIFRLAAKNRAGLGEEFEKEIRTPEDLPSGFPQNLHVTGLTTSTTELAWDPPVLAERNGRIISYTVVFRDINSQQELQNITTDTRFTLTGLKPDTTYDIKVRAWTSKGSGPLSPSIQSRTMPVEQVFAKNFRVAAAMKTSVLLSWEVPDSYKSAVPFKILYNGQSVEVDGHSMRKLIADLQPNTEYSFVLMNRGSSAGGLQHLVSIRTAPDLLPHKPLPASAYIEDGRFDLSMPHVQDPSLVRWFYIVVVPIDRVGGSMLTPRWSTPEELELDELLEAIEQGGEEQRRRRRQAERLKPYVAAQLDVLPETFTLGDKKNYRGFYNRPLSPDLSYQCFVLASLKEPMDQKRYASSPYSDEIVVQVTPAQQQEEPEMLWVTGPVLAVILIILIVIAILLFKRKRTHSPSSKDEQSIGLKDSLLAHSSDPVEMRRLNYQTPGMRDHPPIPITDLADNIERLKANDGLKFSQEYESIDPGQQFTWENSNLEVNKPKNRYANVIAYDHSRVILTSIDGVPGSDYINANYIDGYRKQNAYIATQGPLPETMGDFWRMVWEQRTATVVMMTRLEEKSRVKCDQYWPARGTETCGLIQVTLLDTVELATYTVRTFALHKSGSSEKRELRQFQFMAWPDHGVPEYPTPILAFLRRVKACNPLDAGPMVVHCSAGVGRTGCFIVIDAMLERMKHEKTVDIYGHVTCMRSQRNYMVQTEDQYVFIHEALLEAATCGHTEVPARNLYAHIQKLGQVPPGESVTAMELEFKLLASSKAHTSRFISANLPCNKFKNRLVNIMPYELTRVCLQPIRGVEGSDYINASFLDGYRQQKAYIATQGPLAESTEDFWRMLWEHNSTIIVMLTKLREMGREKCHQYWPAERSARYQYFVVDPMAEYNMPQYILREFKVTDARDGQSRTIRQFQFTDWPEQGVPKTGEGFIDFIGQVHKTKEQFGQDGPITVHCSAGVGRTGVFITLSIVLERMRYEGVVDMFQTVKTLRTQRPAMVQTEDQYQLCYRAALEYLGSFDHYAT
Description: as §1

## CC(C)c1cc(-c2cccc(C(F)(F)F)c2)ccc1-c1cc(C(=O)O)no1 [5-[2-(propan-2-yl)-4-[3-(trifluoromethyl)phenyl]phenyl]-1,2-oxazole-3-carboxylic acid]
[1]
  Ki: 0.85 µM

## O=C(O)c1cc(-c2ccc(-c3ccc(F)c(C(F)(F)F)c3)cc2C2CCCCC2)on1 [5-{2-cyclohexyl-4-[4-fluoro-3-(trifluoromethyl)phenyl]phenyl}-1,2-oxazole-3-carboxylic acid]
[2]
  Ki: > 50 µM
[3]
  Ki: > 50 µM
[4]
  Ki: 7.7 µM
[5]
  Ki: > 50 µM
[6]
  Ki: 21.4 µM

## O=C(O)c1cc(-c2ccc(-c3cccc(C(F)(F)F)c3)cc2)on1 [5-{4-[3-(trifluoromethyl)phenyl]phenyl}-1,2-oxazole-3-carboxylic acid]
[1]
  Ki: 2.5 µM

## O=C1CC(c2ccc(-c3cccc(C(F)(F)F)c3)cc2)S(=O)(=O)N1 (centres undefined) [5-{4-[3-(trifluoromethyl)phenyl]phenyl}-1,2-thiazolidine-1,1,3-trione]
[1]
  Ki: 8.8 µM

## CC(C)c1cc(-c2ccc(F)c(C(F)(F)F)c2)ccc1-c1cc(C(=O)O)no1 [5-{4-[4-fluoro-3-(trifluoromethyl)phenyl]-2-(propan-2-yl)phenyl}-1,2-oxazole-3-carboxylic acid]
[1]
  Ki: 0.5 µM
